In experiment [1] the target is T1, Beta-2 adrenergic receptor (Homo sapiens, UniProt P07550). The experiment can be described thus: Agonist activity at human beta2 adrenergic receptor expressed in HEK293 cells assessed as stimulation of cAMP accumulation. Format: functional, cell-based. (In general: cAMP levels reflect the balance of adenylyl cyclase and phosphodiesterase activity.)
In experiment [2] the target is T1, Beta-2 adrenergic receptor. The experiment can be described thus: Displacement of [3H]-(R,R')-methoxyfenoterol from human beta2 adrenergic receptor expressed in HEK cells by liquid scintillation counting analysis. It is filed as cell-based, HEK293. On the technique in general: Loss of bound radioactivity is the signal in a displacement assay; it reports binding, not function.

Experiment [3] concerns the target T1, Beta-2 adrenergic receptor. The experiment can be described thus: Displacement of [3H]-CGP-12177 from human beta2 adrenergic receptor expressed in HEK cells by liquid scintillation counting analysis. It is filed as cell-based, HEK293.

T1 sequence (P07550 whole entry): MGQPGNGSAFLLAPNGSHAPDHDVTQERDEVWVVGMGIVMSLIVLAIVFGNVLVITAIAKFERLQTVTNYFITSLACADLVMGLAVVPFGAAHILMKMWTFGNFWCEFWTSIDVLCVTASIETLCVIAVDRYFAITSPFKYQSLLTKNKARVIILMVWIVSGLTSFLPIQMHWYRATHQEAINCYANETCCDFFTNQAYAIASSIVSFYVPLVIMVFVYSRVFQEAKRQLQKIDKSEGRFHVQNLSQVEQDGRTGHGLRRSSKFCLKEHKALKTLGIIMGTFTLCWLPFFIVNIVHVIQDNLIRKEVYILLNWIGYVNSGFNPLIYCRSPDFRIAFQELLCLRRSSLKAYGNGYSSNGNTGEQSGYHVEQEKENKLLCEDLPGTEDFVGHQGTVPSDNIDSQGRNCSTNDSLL

Consider `COc1ccc(C[C@H](NC[C@H](O)c2cc(O)cc(O)c2)C(C)C)cc1`, for which the 50% effective concentration (EC50) (usually the midpoint of the concentration-response curve) in experiment [1] was 26.2 µM. Moreover, the Ki (commonly a dissociation constant, usually derived from enzyme kinetics or from competition with a known ligand) in experiment [2] is 29.2 µM; in experiment [3] it was over 100 µM.

For `CC[C@@H](Cc1ccc(OC)cc1)NC[C@H](O)c1cc(O)cc(O)c1`, the EC50 in experiment [1] is 1.01 µM. In addition, the Ki in experiment [2] was 4.3 µM; in experiment [3], 20.1 µM.

Turning to `COc1ccc(C[C@@H](NC[C@H](O)c2cc(O)cc(O)c2)C(C)C)cc1`, the EC50 in experiment [1] is 6.1 µM. Further, the values for the Ki in experiment [2] and in experiment [3] were 3.42 µM and over 100 µM, respectively.

With `CC[C@H](Cc1ccc(OC)cc1)NC[C@H](O)c1cc(O)cc(O)c1`, the EC50 in experiment [1] came to 0.00163 µM. The Ki in experiment [2] came to 0.0357 µM; in experiment [3], 0.42 µM.

Consider `CC[C@H](Cc1ccc(O)cc1)NC[C@H](O)c1cc(O)cc(O)c1`, for which, in experiment [2], the Ki amounted to 0.0391 µM.

As for `CC[C@@H](Cc1ccc(O)cc1)NC[C@H](O)c1cc(O)cc(O)c1`, the Ki in experiment [2] came out at 0.294 µM.

Source of the values: ChEMBL document CHEMBL3097992, “Comparative molecular field analysis of fenoterol derivatives interacting with an agonist-stabilized form of the β₂-adrenergic receptor” (Bioorg Med Chem, 2014).
